Molecular target: HPK1 (Homo sapiens (Human), UniProt Q92918)
Experiment: HPK1 biochemical enzyme assay (microfluidic mobility shift assay)
Conditions: 1.5 nM HPK1, ATP 1 mM final, 30 min preincubation, 60 min at RT, Caliper EZ Reader; read-out: HPK1 1000UMATP caliper IC50
Outline: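 Mobility shift readout of HPK1 activity after a 60 min RT reaction with 1 mM ATP, 1 μM substrate and 5 mM MgCl2. Enzyme/substrate mix was first exposed to compounds for 30 min, using ten-point curves topping at 3 μM final.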

Sequence of HPK1 (Q92918 whole entry): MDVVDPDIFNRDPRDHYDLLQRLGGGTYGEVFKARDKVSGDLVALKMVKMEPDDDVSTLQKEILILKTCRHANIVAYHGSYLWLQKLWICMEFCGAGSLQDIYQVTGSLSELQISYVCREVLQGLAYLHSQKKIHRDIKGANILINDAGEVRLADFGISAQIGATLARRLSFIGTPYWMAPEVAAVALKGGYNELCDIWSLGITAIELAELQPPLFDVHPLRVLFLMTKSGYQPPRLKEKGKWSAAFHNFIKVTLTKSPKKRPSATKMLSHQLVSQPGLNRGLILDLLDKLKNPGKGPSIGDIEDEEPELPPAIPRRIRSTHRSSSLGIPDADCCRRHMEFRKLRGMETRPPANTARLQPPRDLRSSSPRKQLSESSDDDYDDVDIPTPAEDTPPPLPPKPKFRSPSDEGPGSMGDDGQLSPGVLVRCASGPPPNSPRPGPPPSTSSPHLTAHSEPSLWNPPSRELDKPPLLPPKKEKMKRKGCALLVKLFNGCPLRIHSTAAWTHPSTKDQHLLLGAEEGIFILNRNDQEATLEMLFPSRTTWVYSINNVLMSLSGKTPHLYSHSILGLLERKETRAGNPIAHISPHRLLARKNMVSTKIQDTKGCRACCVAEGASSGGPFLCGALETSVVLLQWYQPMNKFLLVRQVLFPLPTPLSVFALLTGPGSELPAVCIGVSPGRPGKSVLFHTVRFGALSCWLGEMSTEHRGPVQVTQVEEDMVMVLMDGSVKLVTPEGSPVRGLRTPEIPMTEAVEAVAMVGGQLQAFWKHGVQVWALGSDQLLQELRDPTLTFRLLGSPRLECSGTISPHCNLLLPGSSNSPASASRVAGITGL

Question: With `CN(C)Cc1cc(Nc2ccc(-c3cnc4cc(Cl)ccn34)c3c2C(=O)NC3)ncc1C1(O)CCOCC1` [I-633, 4-(7-chloroimidazo [1,2-a]pyridin-3-yl)-7-((4-((dimethylamino)-methyl)-5-(4-hydroxytetra-hydro-2H-pyran-4-yl)pyridin-2-yl)amino)isoin-dolin-1-one] as the compound, how does the IC50 read?
Answer: < 100 nM

Question: Which IC50 does the source give for `COCCNc1ccn2c(-c3ccc(Nc4ccc(N5CCC(O)CC5)cn4)c4c3CNC4=O)cnc2c1` [I-205, 7-[[5-(4-hydroxy-1-piperidyl)-2-pyridyl]-amino]-4-[7-(2-methoxyethyl-amino)imidazo [1,2-a]pyridin-3-yl]isoindolin-1-one] here?
Answer: 100 to 1000 nM

Question: Which IC50 does the source give for `CN(Cc1nc(Nc2ccc(-c3cnc4cc(F)ccn34)c3c2C(=O)NC3)ccc1C1CCOC1)CC(F)(F)F` (stereo in doubt) [I-754, (S)-4-(7-fluoroimidazo [1,2-a]pyridin-3-yl)-7-((6-((methyl(2,2.2-trifluoroethyl)amino)methyl)-5-(tetrahydrofuran-3-yl)pyridin-2-yl)amino)isoin-dolin-1-one] here?
Answer: < 100 nM

Question: Which IC50 does the source give for `O=C1NCc2c(-c3cnc4cc(F)ccn34)ccc(Nc3ccc([C@H]4CCOC4)c(CN4CCC[C@@H]4CO)n3)c21` [I-825, 4-(7-fluoroimidazo [1,2-a]pyridin-3-yl)-7-((6-(((R)-2-(hydroxymeth-yl)pyrrolidin-1-yl]methyl)-5-((R)-THF-3-yl)pyridin-2-yl)amino)isoin-dolin-1-one] here?
Answer: < 100 nM

Question: How did the IC50 turn out when `CN(C)C(C)(C)[C@]1(O)CCCN(c2ccc(Nc3ccc(-c4cnc5cc(F)ccn45)c4c3C(=O)NC4)nc2)C1` [I-715, (S)-7-((5-(3-(2-(dimethylami-no)propan-2-yl)-3-hydroxy-piperidin-1-yl)pyridin-2-yl)amino)-4-(7-fluoroimidazo [1,2-a]pyridin-3-yl)isoindolin-1-one] was run?
Answer: < 100 nM

Question: How did the IC50 turn out when `CN1CCN(c2cccc(Nc3ccc(-c4cnc5cnccn45)c4c3C(=O)NC4)n2)CC1` [I-234, 4-imidazo[1,2-a]pyrazin-3-yl-7-[[6-(4-methylpiperazin-1-yl)-2-pyridyl]-amino]isoindolin-1-one] was run?
Answer: 100 to 1000 nM

Question: Which IC50 does the source give for `Cc1cnc2[nH]ccc2c1-c1ccc(Nc2ccc(N3CCN(C)CC3)cn2)c2c1CNC2=O` [I-78, 7-[[5-(4-methylpiperazin-1-yl)-2-pyridyl]amino]-4-(5-methyl-1H-pyrrolo[2,3-b]pyridin-4-yl)isoindolin-1-one] here?
Answer: 100 to 1000 nM

Question: For `CN(C)Cc1nc(Nc2ccc(-c3cnc4cc(C(F)F)ccn34)c3c2C(=O)NC3)ccc1C1CCOC1` (stereo in doubt) [I-752, (S)-4-(7-(difluoromethyl)-imidazo[1,2-a]pyridin-3-yl)-7-((6-((dimethylamino)-methyl)-5-(tetrahydrofuran-3-yl)pyridin-2-yl)amino)isoin-dolin-1-one], which IC50 is on record?
Answer: < 100 nM

Question: How did the IC50 turn out when `O=C1NCc2c(-c3cnc4c(F)cccn34)ccc(Nc3ccc(N4CCC(O)CC4)cn3)c21` [I-130, 4-(8-fluoroimidazo [1,2-a]pyridin-3-yl)-7-[[5-(4-hydroxy-1-piperidyl)-2-pyridyl]amino] isoindolin-1-one] was run?
Answer: < 100 nM

Question: `O=C1NCc2c(-c3cnc4cc(CO)ccn34)ccc(Nc3ccc(N4CCOCC4)cn3)c21` [I-196, 4-[7-(hydroxymeth-yl)imidazo[1,2-a]pyridin-3-yl]-7-[(5-morpholino-2-pyridyl)amino] isoindolin-1-one] was tested. Which IC50 did it give?
Answer: < 100 nM

Question: With `CN1CC(Oc2nc(Nc3ccc(-c4cnc5cc(F)ccn45)c4c3C(=O)NC4)ccc2[C@H]2CCOC2)C1` [I-815] as the compound, how does the IC50 read?
Answer: < 100 nM

Question: `CN1CC(c2cccc(Nc3cnc(-c4ccnc5c4ccn5C)c4c3C(=O)NC4)n2)C1` [I-432, 4-(1-methyl-1H-pyrrolo[2,3-b]pyridin-4-yl)-7-((6-(1-methylazetidin-3-yl)pyridin-2-yl)amino)-2,3-dihydro-1H-pyrrolo[3,4-c]pyridin-1-one] was tested. Which IC50 did it give?
Answer: > 1000 nM

Question: Which IC50 does the source give for `COCC1(O)CCN(c2ccc(Nc3ccc(-c4ccnc5c4ccn5C)c4c3C(=O)NC4)nc2)CC1` [I-298, 7-((5-(4-hydroxy-4-(methoxymeth-yl)piperidin-1-yl)pyridin-2-yl)amino)-4-(1-methyl-1H-pyrrolo[2,3-b]pyridin-4-yl)isoindolin-1-one] here?
Answer: < 100 nM

Question: How did the IC50 turn out when `O=C1NCc2c(-c3cnc4cc(Cl)ccn34)ccc(Nc3ccc(N4CCC(O)(CN5CCOCC5)CC4)cn3)c21` [I-447, 4-(7-chloroimidazo [1,2-a]pyridin-3-yl)-7-((5-(4-hydroxy-4-(morpholino-methyl)piperidin-1-yl)pyridin-2-yl)amino)isoin-dolin-1-one] was run?
Answer: < 100 nM

Question: For `CN1CCN(c2ccc(Nc3cnc(-c4c(-c5ccccc5)[nH]c5ccccc45)c4c3C(=O)NC4)nc2)CC1` [I-141, 7-((5-(4-Methylpiperazin-1-yl)pyridin-2-yl)amino)-4-(2-phenyl-1H-indol-3-yl)-2,3-dihydro-1H-pyrrolo[3,4-c]pyridin-1-one], which IC50 is on record?
Answer: < 100 nM

Question: How did the IC50 turn out when `COC1(c2ccc(Nc3ccc(-c4cnc5cc(F)ccn45)c4c3C(=O)NC4)nc2CN(C)C)CC1` [I-823, 7-((6-((dimethylamino)methyl)-5-(1-methoxycyclopropyl)pyridin-2-yl)amino)-4-(7-fluoroimidazo[1,2-a]pyridin-3-yl)isoindolin-1-one] was run?
Answer: < 100 nM

Question: With `Cn1ccc2c(-c3ncc(Nc4cccc(N5CCC6CNCC65)n4)c4c3CNC4=O)ccnc21` (stereo not drawn) [I-472, 7-[[6-(3,3a,4,5,6,6a-hexahydro-2H-pyrrolo[2,3-c]pyrrol-1-yl)-2-pyridyl]amino]-4-(1-methylpyrrolo [2,3-b]pyridin-4-yl)-2,3-dihydropyrrolo [3,4-c]pyridin-l-one] as the compound, how does the IC50 read?
Answer: < 100 nM

Question: How did the IC50 turn out when `Cn1ccc2c(-c3ccc(Nc4ccc(C5CCOC5)cn4)c4c3CNC4=O)ccnc21` (centres unmarked) [I-108, 4-(1-methylpyrrolo [2,3-b]pyridin-4-yl)-7-[(5-THF-3-yl-2-pyridyl)amino] isoindolin-1-one] was run?
Answer: < 100 nM

Question: How did the IC50 turn out when `O=C1NCc2c(-c3cnc4cc(F)ccn34)ccc(Nc3ccc(N4CCC[C@@]5(CNCCO5)C4)cn3)c21` [I-507, (R)-7-((5-(1-oxa-4,8-diazaspiro[5.5]undecan-8-yl)pyridin-2-yl)amino)-4-(7-fluoroimidazo [1,2-a]pyridin-3-yl)isoindolin-1-one] was run?
Answer: < 100 nM

Question: `Cc1ccc2c(-c3ccc(Nc4ccc(N5CCN(C)CC5)cn4)c4c3CNC4=O)c[nH]c2c1` [I-23, 4-(6-methyl-1H-indol-3-yl)-7-[[5-(4-methylpiperazin-1-yl)-2-pyridyl]amino]isoindolin-1-one] was tested. Which IC50 did it give?
Answer: 100 to 1000 nM

Question: Which IC50 does the source give for `Cn1nc(Nc2ccc(-c3ccnc4c3ccn4C)c3c2C(=O)NC3)cc1C1CCOCC1` [I-129, 4-(1-methylpyrrolo [2,3-b]pyridin-4-yl)-7-[(1-methyl-5-tetrahydropy-ran-4-yl-pyrazol-3-yl)amino]isoin-dolin-1-one] here?
Answer: < 100 nM

Question: Which IC50 does the source give for `NCc1nc(Nc2ccc(-c3cnc4cc(F)ccn34)c3c2C(=O)NC3)ccc1[C@@H]1CCOC1` [I-702, (S)-7-((6-(aminomethyl)-5-(tetrahydrofuran-3-yl)pyridin-2-yl)amino)-4-(7-fluoroimidazo [1,2-a]pyridin-3-yl)isoindolin-1-one] here?
Answer: < 100 nM

Question: `O=C1NCc2c(-c3cnc4cc(F)ccn34)ccc(Nc3ccc(C4CCOC4)c(CN4CCOCC4)n3)c21` (stereo in doubt) [I-721, (R)-4-(7-fluoroimidazo [1,2-a]pyridin-3-yl)-7-((6-(morpliolinomethyl)-5-(tetrahydrofuran-3-yl)pyridin-2-yl)amino)isoin-dolin-1-one] was tested. Which IC50 did it give?
Answer: < 100 nM

Question: `C[C@@H](O)[C@@H]1CCCN(c2ccc(Nc3ccc(-c4cnc5cc(F)ccn45)c4c3C(=O)NC4)nc2)C1` (stereo in doubt) [I-357, 4-(7-fluoroimidazo [1,2-a]pyridin-3-yl)-7-((5-((S)-3-((S)-1-hydroxyethyl)piperidin-1-yl)pyridin-2-yl)amino)isoin-dolin-1-one] was tested. Which IC50 did it give?
Answer: < 100 nM

Question: How did the IC50 turn out when `O=C1NCc2c(-c3cccn4nccc34)ncc(Nc3ccc(N4CCC(O)CC4)cn3)c21` [I-370, 7-((5-(4-hydroxy-piperidin-1-yl)pyridin-2-yl)amino)-4-(pyrazolo[1,5-a]pyridin-4-yl)-2,3-dihydro-1H-pyrrolo[3,4-c]pyridin-1-one] was run?
Answer: 100 to 1000 nM

Question: For `Cn1ccc2c(-c3ncc(Nc4ccc(N5CCC(O)CC5)cn4)c4c3CNC4=O)cccc21` [I-279, 7-((5-(4-hydroxypi-peridin-1-yl)pyridin-2-yl)amino)-4-(1-methyl-1H-indol-4-yl)-2.3-dihydro-1H-pyrrolo[3,4-c]pyridin-1-one], which IC50 is on record?
Answer: < 100 nM

Question: With `CN(C)Cc1nc(Nc2ccc(-c3cnc4cc(F)ccn34)c3c2C(=O)NC3)ccc1N1CC[C@H](O)C1` [I-555] as the compound, how does the IC50 read?
Answer: < 100 nM

Question: With `CNC(C)(C)[C@H]1CN(c2ccc(Nc3ccc(-c4cnc5cc(F)ccn45)c4c3C(=O)NC4)nc2)CCO1` (single isomer, unassigned) [I-676] as the compound, how does the IC50 read?
Answer: < 100 nM

Question: How did the IC50 turn out when `CN1CCN(c2cccc(Nc3ccc(-c4cnc5cc(Cl)ccn45)c4c3C(=O)NC4)n2)CC1` [I-236, 4-(7-chloroimidazo [1,2-a]pyridin-3-yl)-7-[[6-(4-methylpiperazin-1-yl)-2-pyridyl]amino] isoindolin-1-one] was run?
Answer: < 100 nM

Question: Which IC50 does the source give for `CN1CC[C@@]12CCN(c1cccc(Nc3cnc(-c4ccnc5c4ccn5C)c4c3C(=O)NC4)n1)C2` [I-616, (S)-7-((6-(1-methyl-1,6-diazaspiro[3,4]octan-6-yl)pyridin-2-yl)amino)-4-(1-methyl-1H-pyrrolo[2,3-b)pyridin-4-yl)-2,3-dihydro-1H-pyrrolo[3,4-c]pyridin-1-one] here?
Answer: < 100 nM

Question: `CN(C)CCNC(=O)C(C)(C)c1ccc(Nc2ccc(-c3cnc4cc(F)ccn34)c3c2C(=O)NC3)nc1` [I-227, N-[2-(dimethylami-no)ethyl]-2-[6-[[7-(7-fluoroimidazo [1,2-a]pyridin-3-yl)-3-oxo-isoindolin-4-yl]amino]-3-pyridyl]-2-methyl-propanamide] was tested. Which IC50 did it give?
Answer: < 100 nM

Question: For `O=C1NCc2c(-c3cnc4cnccn34)ccc(Nc3ccc(N4[C@@H]5CC[C@H]4C[C@H](O)C5)cn3)c21` [I-320, 7-((5-((1R,3s,5S)-3-hydroxy-8-azabicyclo [3,2.1]octan-8-yl)pyridin-2-yl)amino)-4-(imidazo[1,2-a]pyrazin-3-yl)isoindolin-1-one], which IC50 is on record?
Answer: < 100 nM
